In brackets after ≈: the same amount, converted by molar mass.
Experiments:
[1] = test system: MRSA; test: MIC by broth microdilution, MRSA isolates; format: cell-based; conditions: Table 1 (Example 2); for MIC50 MRSA AG38: strain AG38; for MIC50 MRSA AG39: strain AG39; for MIC50 MRSA AG42: strain AG42; for MIC50 MRSA AG44: strain AG44
[2] = test system: E coli wild type; test: MIC by broth microdilution, wild type E coli; format: cell-based; conditions: for MIC50 E coli BM13 (AG06) wt: Table 2A (Example 2); for MIC50 E coli pH430 WT: Table 2B (Example 2); for MIC50 E coli AG01: strain AG01; for MIC50 E coli AG01 / MIC50 E coli AG03 / MIC50 E coli AG55: Table 1 (Example 2); for MIC50 E coli AG03: strain AG03; for MIC50 E coli AG55: strain AG55; for MIC AG212 E. coli: strain AG212 E. coli (ATCC25922)
[3] = test system: P aeruginosa; test: MIC by broth microdilution, P aeruginosa isolates; format: cell-based, Pseudomonas aeruginosa; conditions: strain AG220 Pseudomonas aeruginosa ATCC27853
[4] = test system: E coli carrying specific resistance determinants; test: MIC by broth microdilution, E coli carrying specific resistance determinants; format: cell-based; conditions: Table 2B (Example 2)
[5] = test system: Klebsiella pneumonia AG215; test: MIC by broth microdilution, Klebsiella pneumonia; format: cell-based; conditions: strain AG215 Klebsiella pneumonia
[6] = test system: Acinetobacter baumannii pittii AG225; test: MIC by broth microdilution, Acinetobacter baumannii; format: cell-based; conditions: strain AG225 Acinetobacter baumannii pittii
[7] = test system: Enterobacter cloacae AG290; test: MIC by broth microdilution, Enterobacter cloacae; format: cell-based; conditions: strain AG290 Enterobacter cloacae
[8] = test system: N. gonorrhoeae; test: Disk diffusion, N. gonorrhoeae; format: cell-based; conditions: 25 nmol
[9] = test system: M. smegmatis SZ380; test: MIC by broth microdilution, M. smegmatis; conditions: strain SZ380 Mycobacterium smegmatis

SMILES | MIC50 MRSA AG38 [1] [µg/mL] | MIC50 MRSA AG39 [1] [µg/mL] | MIC50 MRSA AG42 [1] [µg/mL] | MIC50 MRSA AG44 [1] [µg/mL] | MIC50 E coli BM13 (AG06) wt [2] [µg/mL] | MIC50 E coli pH430 WT [2] | MIC50 E coli AG01 [2] [µg/mL] | MIC50 E coli AG03 [2] [µg/mL] | MIC50 E coli AG55 [2] [µg/mL] | MIC AG212 E. coli [2] [µg/mL] | MIC AG220 P. aerugin [3] [µg/mL] | MIC50 E coli AG036 ANT(4′,4″) [4] [µg/mL] | MIC50 E coli AG037 APH(3′)-III [4] [µg/mL] | MIC50 E coli AG103 armA [4] [µg/mL] | MIC50 E coli pH414 AAC(6′)-I [4] [μg/ml] | MIC50 E coli pH415 AAC(6′)-II [4] [μg/ml] | MIC50 E coli pH421 APH(3′)-I [4] [μg/ml] | MIC50 E coli pH422 APH(3′)-II [4] [μg/ml] | MIC50 E coli pH423 APH(3)-VI [4] [μg/ml] | MIC50 E coli pH432 ANT(4′) [4] [μg/ml] | other results
CC(O)C1OC(OC2C(N)CC(N)C(O)C2OC2OC(CO)C(OC3OC(CN)C(O)C(O)C3N)C2O)C(N)C(O)C1O (centres unmarked) [Compound 156] | 4 to 8 | >128 | >128 | 2 to 4 | 1 (≈ 1.59 µM) | 1 μg/ml | 4 (≈ 6.35 µM) | 4 to 8 | 4 (≈ 6.35 µM) | 2 (≈ 3.18 µM) | >32 | 32 to 64 | >32 | 1 (≈ 1.59 µM) | 1 | 1 | >32 | >32 | >32 | 1 | MIC AG215 K. pneumon [5]: 1 µg/mL (≈ 1.59 µM); MIC AG225 A. baumannii [6]: 2 µg/mL (≈ 3.18 µM); MIC AG290 E. cloacae [7]: 1 µg/mL (≈ 1.59 µM); Disk diffusion 25 nmol N. gonorrhoeae [8]: 10 mm; MIC SZ380 M. smegmatis [9]: 0.5 µg/mL (≈ 0.794 µM)
C[C@@H](O)[C@H]1O[C@H](O[C@H]2[C@H](O[C@@H]3O[C@H](CO)[C@@H](O[C@H]4O[C@@H](CN)[C@@H](O)[C@H](O)[C@H]4N)[C@H]3O)[C@@H](O)[C@H](N)C[C@@H]2N)[C@H](N)[C@@H](O)[C@@H]1O [Compound 155, 6′(R)-6′-C-Methylparomomycin] | 8 (≈ 12.7 µM) | >64 | >64 | 4 (≈ 6.35 µM) | 2 (≈ 3.18 µM) | 1-2 μg/ml | 8 to 16 | 8 to 16 | 8 to 16 | 4 (≈ 6.35 µM) | >32 | >32 | >32 | 8 (≈ 12.7 µM) | 2 | 2 | >32 | >32 | >32 | 2 | MIC AG215 K. pneumon [5]: 2 µg/mL (≈ 3.18 µM); MIC AG225 A. baumannii [6]: 4 µg/mL (≈ 6.35 µM); MIC AG290 E. cloacae [7]: 2 to 4 µg/mL; Disk diffusion 25 nmol N. gonorrhoeae [8]: 8 mm; MIC SZ380 M. smegmatis [9]: 4 µg/mL (≈ 6.35 µM)

Source: patent publication US11466044B2 (WAYNE STATE UNIVERSITY, priority 2017, dated 2022)
